Data reported in publication PMC10688098, “Intrinsic Solubility of Ionizable Compounds from pKa Shift” (ACS Omega, 2023).
≈ marks a conversion by molar mass, not a printed value.

Tests used:
Type in all cases: physicochemical
[1] = Chemical stability in acid and base; conditions: pH 2.0 to 12.0
[2] = Solubility at near-neutral pH; conditions: aqueous buffer
Experimental: (§1) The compound ICPD47 is sparingly soluble at near-neutral pH. Solubility is approximately equal to or below 100 μM. The solutions exceeding the solubility limit (0.25, 0.5, and 1.0 mM) were prepared by adding 1.5 equiv of NaOH (0.375 0.75, and 1.5 mM, respectively; 0.5 equiv excess), thus shifting the compound to its highly soluble deprotonated negatively charged form. The deprotonated solutions were titrated with […] more concentrated HCl (2.5 mM; 5.0 mM; and 10 mM) containing the same concentration of DMSO as in the analyte solution (2.0% in all solutions).

[3] = Intrinsic pKa and intrinsic solubility of ICPD47 from pKa shift (spectrophotometric and potentiometric titration, linked ionization-dissolution model); conditions: 25 °C, pKa shift model
Experimental: as §1
The pH titration was performed with a 250 μL syringe that was filled with the titrant (acid), and the needle was placed into the sample cell filled with 2.5 mL of analyzed solution. A pH microelectrode was also inserted into the same cell. […] The analyzed solution was mixed after each injection using a pipet. The pH was measured potentiometrically using a Mettler Toledo MP220 pH meter with a combined glass InLab Microelectrode. […] The pH measurements were recorded only when the pH measurement instability was less than 0.01 min^–1. […]
The ICPD47 compound solutions were prepared in the universal buffer of different pH values from 4.5 to 10.5 at every 0.5 pH unit. […] The absorbance was measured with an Agilent 8453 UV–vis spectrophotometer using the same 2.5 mL cuvette as for potentiometric titration. […]

[4] = Intrinsic pKa and intrinsic solubility from the model applied to literature titration data (Bjerrum plots)
From the text: Since raw data formats were unavailable, we used WebPlotDigitizer to extract data from Bjerrum plots.[28],[29] Additionally, we used the equation for bound hydrogen ions per substance molecule to reverse engineer equivalent titrant added during the titration.[30] According to the model, any protonizable compound exists in three forms, the charged-dissolved form, the uncharged-dissolved form, and the uncharged-nondissolved (aggregated) form. We use the concept of 'the active concentration of an aggregate (precipitate)'. This concentration is mathematically equal to the amount of aggregate divided by volume of solution. This aggregate remains undissolved and is at an equilibrium (thermodynamic) concentration. The uncharged form of the ICPD47 compound exists in two forms, the dissolved form [ROH] and the aggregated form [ROH↓]. Furthermore, the total concentration of the ICPD47 compound, C, is equal to the sum of all three forms of the compound and includes the deprotonated concentration [RO^-]: [drawing 1] 1 Here we assume that the deprotonated form is highly soluble and there is no need to consider the aggregated form of the negatively charged deprotonated compound. […] A is inversely proportional to the intrinsic solubility, S, and is expressed and rearranged to [drawing 7] 7 [drawing 8] […] 12 cannot be expressed as a function pH = f([Hadd^+]), but may be solved numerically.

| SMILES | Chemical stability in acid and base [1] | solubility [2] | solubility ([3]; aqueous buffer, kinetic from dmso stock, aqueous universal buffer / titration with DMSO, read-out: Intrinsic solubility of the uncharged form) | pKa ([3]; read-out: Intrinsic pKa (model estimate)) | pKa ([4]; model fit to literature titration data, value at infinite dilution) | solubility ([4]; water, thermodynamic from solid, model fit to literature titration data (ref 5, 22, 23)) |
| --- | --- | --- | --- | --- | --- | --- |
| CCOc1ccc(-c2snnc2-c2cc(Cl)c(O)cc2O)cc1 [ICPD47] | chemically stable in acid and base | ≤ 100 µM | ~75 µM | 6.85 | – | – |
| CN(C)CCCOc1nn(Cc2ccccc2)c2ccccc12 [benzydamine] | – | – | – | – | 9.6 | 270 µM (≈ 83.5 µg/mL) |
